Assay results taken from patent US20120238767A1, “ANTIOXIDANT INFLAMMATION MODULATORS: NOVEL DERIVATIVES OF OLEANOLIC ACID” (priority 2008, published 2012).
In brackets after ≈: the same amount, converted by molar mass.

Experiment: Aqueous solubility determination (Millipore Multiscreen solubility filter plate, UV/vis)
Type: physicochemical
Conditions: kinetic from dmso stock; Universal Aqueous Buffer pH 7.4, 90 minutes at room temperature
Method: Aqueous Solubility Determination. The following procedure was used to obtain the aqueous solubility results summarized in Example 4. Step 1. Determination of optimal UV/vis wavelengths and generation of standard curves for a compound of interest: • (1) For eight standard calibration curves (one plate), prepare 34 mL of 50:50 (v:v) universal buffer:acetonitrile in a 50 mL tube. • (2) Using a multichannel pipet, dispense (in μL) the buffer:acetonitrile in a deep well plate as follows:
• (3) Using a multichannel pipet, dispense DMSO into the same plate as follows:
• (4) Add 10 mM compound in DMSO into the plates as follows:
• (5) Mix columns 1 and 2 by pipetting each up and down 10 times. Mix columns 3 and 4 by pipetting up and down 10 times. Serially dilute as follows (pipet up and down 10 times after each transfer):
• (6) Cover plate with lid and shake (200-300 rpm) at room temperature for 20 minutes. • (7) Mix all wells by pipetting up and down 10 times. • (8) Transfer 120 μL from each well to a UV transparent plate. Cover and shake for 3-5 minutes. Remove any bubbles in the wells using a pipet. • (9) Read from 220 nm to 500 nm at 10 nm increments on a spectrophotometer (e.g., SpectraMax®).
Step 2. Compound Solubility Testing Procedures using the Millipore™ Multiscreen® Solubility Filter Plate. […]
Solubility Protocol: • (a) Add 285 μL of Universal Aqueous Buffer to desired wells of the Millipore™ Multiscreen® Solubility filter plate. • (b) Add 15 μL of 10 mM compound in DMSO to the appropriate wells. […] Remove any bubbles with a pipet. • (i) Measure the absorbance of each well in the plate on the spectrophotometer (UV/vis) at the desired wavelength. For compounds in a plate with different absorbance peaks, set the spectrophotometer to read a spectrum (e.g., from 220 nm to 460 nm). • (j) Identify concentration using measured absorbance for each compound and the predetermined standard curve (see Step 1).

Row | solubility at 90 min [µM] | Structure (SMILES)
1 | 0.06 (≈ 0.0344 µg/mL) | CC1(C)CC[C@]2(C(=O)NCC(F)(F)F)CC[C@]3(C)[C@H](C(=O)C=C4[C@@]5(C)C=C(C#N)C(=O)C(C)(C)[C@@H]5CC[C@]43C)[C@@H]2C1 [Compound 63102, reference compound]
2 | 164 (≈ 75.7 µg/mL) | CC1(C)CC[C@]2(N)CC[C@]3(C)[C@H](C(=O)C=C4[C@@]5(C)C=C(C#N)C(=O)C(C)(C)[C@@H]5CC[C@]43C)[C@@H]2C1 [Compound 63198]
3 | 13.6 (≈ 6.89 µg/mL) | COC(=O)[C@]12CCC(C)(C)C[C@H]1[C@H]1C(=O)C[C@@H]3[C@@]4(C)C=C(C#N)C(=O)C(C)(C)[C@@H]4CC[C@@]3(C)[C@]1(C)CC2 [Compound 63219]
